Laboratory results as given in PMC4317013 (The Journal of Biological Chemistry, 2014).

Key:
enteropeptidase = assay: 30 nM enteropeptidase; details: 37 °C, up to 120 min
urokinase = assay: 30 nM urokinase; details: 37 °C, up to 120 min
[1] = media from untreated U937 cells (RMPI 1640 medium); details: 37 °C, up to 4 h
testisin = assay: 30 nM testisin in testisin buffer (50 mM Tris, 150 mM NaCl, 10 mM CaCl2, pH 7.5); details: 37 °C, up to 120 min
Jurkat T cells = assay: Internalization of FITC-labeled peptides by Jurkat T cells, FACS; details: 5 μM, 1 h, 37 °C, full medium with 10% FBS, washed, fixed with 4% paraformaldehyde, FACSCalibur, compared with untreated cells, Fig. 5A
Procedure: For the internalization experiment, cells were seeded at 1 × 10^6 cells/ml with 8 ml of full medium into 75-cm^2 flasks and treated with respective 200 nM proteins for 2 h or 5 μM peptides for 1 h.
Human A+-helix peptide ([…]; corresponding to the cleaved N-terminal peptide of hPCI), mouse A+-helix peptide ([…]; corresponding to the cleaved N-terminal peptide of mPCI), and TAT peptide ([…]) ([42]) were synthesized and labeled with FITC (GenScript, Piscataway, NJ). […] Fluorescence-activated cell sorting (FACS) analysis was performed with a FACSCalibur flow cytometer (BD Biosciences). Further data analysis was done with Flowing Software ([43]). For confocal microscopy, the fixed cells were suspended with Vectashield mounting medium containing […] DAPI (Vector Laboratories, Burlingame, CA) and transferred onto slides. Confocal images were taken by a Zeiss LSM-510 Meta confocal microscope system (Zeiss, Jena, Germany). Zeiss LSM Image Browser software was applied for further analysis of images.

| Substance | not cleaved (enteropeptidase) | not cleaved (urokinase) | not cleaved [1] | cleaved bond (testisin) | cellular fluorescence signal (FACS) (Jurkat T cells) |
| --- | --- | --- | --- | --- | --- |
| RRHSHSKKKKAKESSVGAVGPPSSKDFA... | still recognized by anti-penta-His IgG after 2-h incubation | still recognized by anti-penta-His IgG after 2-h incubation | did not affect the molecular weight of mPCI upon incubation for 1 and 4 h | Ala18-Val19 |  |
| Fluorescein Isothiocyanate [free FITC] |  |  |  |  | small shift |
